From US20260217767A1, “NOVEL A4B7 THIOETHER PEPTIDE DIMER ANTAGONISTS” (Protagonist Therapeutics, Inc., priority 2014, published 2026)
Read-outs that look alike come from different tables or passages of the source. *1 amine or outer side, *2 acyl side, *3 side chain or, on linkers, in order; H or OH if unused. Where a SMILES comes first, the peptide text is derived from it. Bridges are numbered along the chain shown (N, C = ends). Roman numbers before positions name the chains, in order. [ ]: non-standard residue; d: D form. Phe(4-CF3) = N[C@@H](Cc1ccc(C(F)(F)F)cc1)C(=O)O; 1Nal = N[C@@H](Cc1cccc2ccccc12)C(=O)O; Diglycolyl = O=C(COCC(=O)[*:2])[*:1]; NMeR = CN[C@@H](CCCNC(=N)N)C(=O)O; β3hE = N[C@@H](CCC(=O)O)CC(=O)O; X1 = O=C(c1ccccc1C[*:2])[*:1]; Pen = CC(C)(S)[C@H](N)C(=O)O; hCys = N[C@@H](CCS)C(=O)O

Tests used:
α4β1 = target: T1, α4β1 (Homo sapiens, UniProt P05556+P13612); experiment: α4β1-VCAM Competition ELISA; assay type: binding; settings: read-out: ELISA A4B1
T1 construct: purchased R&D Systems 5668-A4
T1 sequence (P13612 34-977 limits assumed): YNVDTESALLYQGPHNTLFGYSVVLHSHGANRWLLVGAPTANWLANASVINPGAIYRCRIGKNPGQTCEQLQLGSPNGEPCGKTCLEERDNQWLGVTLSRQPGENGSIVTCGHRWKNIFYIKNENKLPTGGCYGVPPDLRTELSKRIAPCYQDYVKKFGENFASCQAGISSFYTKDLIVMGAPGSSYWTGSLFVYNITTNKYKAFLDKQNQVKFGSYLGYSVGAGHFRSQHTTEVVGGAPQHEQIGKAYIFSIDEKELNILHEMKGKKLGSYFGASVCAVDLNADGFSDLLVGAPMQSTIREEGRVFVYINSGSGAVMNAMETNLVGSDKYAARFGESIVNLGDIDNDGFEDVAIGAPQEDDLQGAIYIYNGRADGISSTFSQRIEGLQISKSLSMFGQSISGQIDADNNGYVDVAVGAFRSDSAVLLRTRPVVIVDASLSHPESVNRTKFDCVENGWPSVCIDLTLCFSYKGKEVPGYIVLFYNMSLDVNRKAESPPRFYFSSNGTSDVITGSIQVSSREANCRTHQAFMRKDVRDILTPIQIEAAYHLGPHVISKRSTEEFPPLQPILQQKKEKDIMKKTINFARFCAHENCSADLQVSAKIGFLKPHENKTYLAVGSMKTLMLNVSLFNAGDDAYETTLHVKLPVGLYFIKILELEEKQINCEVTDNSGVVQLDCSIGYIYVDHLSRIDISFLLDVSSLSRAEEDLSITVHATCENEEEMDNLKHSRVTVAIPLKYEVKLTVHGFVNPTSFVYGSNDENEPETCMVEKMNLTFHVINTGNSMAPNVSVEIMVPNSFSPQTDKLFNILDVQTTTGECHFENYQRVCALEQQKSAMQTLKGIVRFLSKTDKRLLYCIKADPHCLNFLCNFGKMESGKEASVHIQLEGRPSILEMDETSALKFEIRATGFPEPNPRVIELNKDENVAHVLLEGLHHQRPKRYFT
T1 sequence (P05556 21-728 limits assumed): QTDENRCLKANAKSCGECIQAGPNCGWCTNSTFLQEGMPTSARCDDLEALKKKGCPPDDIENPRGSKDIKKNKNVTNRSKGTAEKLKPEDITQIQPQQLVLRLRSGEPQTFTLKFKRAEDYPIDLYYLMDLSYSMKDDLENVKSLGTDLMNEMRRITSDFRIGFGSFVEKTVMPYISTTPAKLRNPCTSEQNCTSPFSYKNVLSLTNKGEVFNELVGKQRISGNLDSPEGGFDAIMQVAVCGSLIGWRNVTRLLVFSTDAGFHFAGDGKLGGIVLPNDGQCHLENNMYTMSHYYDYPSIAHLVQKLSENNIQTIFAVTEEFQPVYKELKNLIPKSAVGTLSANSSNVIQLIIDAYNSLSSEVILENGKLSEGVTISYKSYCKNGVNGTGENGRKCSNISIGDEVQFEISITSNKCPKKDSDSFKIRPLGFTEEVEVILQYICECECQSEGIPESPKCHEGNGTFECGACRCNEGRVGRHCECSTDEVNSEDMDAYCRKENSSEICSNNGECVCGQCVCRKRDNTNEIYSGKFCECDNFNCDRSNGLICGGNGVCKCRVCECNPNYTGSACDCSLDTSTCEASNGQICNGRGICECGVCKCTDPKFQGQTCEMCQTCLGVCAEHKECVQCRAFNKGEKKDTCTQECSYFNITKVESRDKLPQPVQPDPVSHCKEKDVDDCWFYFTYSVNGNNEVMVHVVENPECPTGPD
Procedure: α4β1-VCAM Competition ELISA
A Nunc MaxiSorp plate was coated with rh VCAM-1/CD106 Fc chimera (R&D #862-VC) at 400 ng/well in 50 ul per well in 1×PBS and incubated overnight at 4° C. The solution was removed by shaking and then blocked with 250 ul of 1% BSA in 1×PBS per well. The wells were then incubated at room temperature for 1 hr with shaking. Each well was then washed once with wash buffer (50 mM Tris-HCl pH7.6, 100 mM NaCL, 1 mM MnCl2 or MgCl2, 0.05% Tween-20). 25 ul of serial dilutions of peptides starting at 200 μM in assay buffer (Assay buffer: 50 mM Tris-HCl pH7.6, 100 mM NaCl, 1 mM MnCl2 or MgCl2, 0.05% Tween-20) was added to each well. Additionally, 25 μl of α4β1 (R&D Systems #5668-A4) was added to each well at a fixed concentration of 120 nM. The final peptide and α4β1 concentrations were 100 μM and 60 nM, respectively. The plates were then incubated at 37° C. for 2 hr. The solution was then removed by shaking and each well was washed three times with wash buffer. 50 ul of 9F10 antibody at 4 ug/ml (purified mouse anti-human CD49d, BD Bioscience Cat #555502) was then added to each well, and the plate was incubated at room temperature for Ihr with shaking. The solution was again removed by shaking, and each well was washed three times with wash buffer. 50 μl of peroxidase-conjugated AffiniPure Goat anti-mouse IgG (Jackson immune research cat #115-035-003) diluted in 1:5000 in assay buffer was added to each well. The plate was incubated at room temperature for 30 min with shaking. Each well was then washed 3 times with wash buffer. 100 ul of TMB was then added to each well and closely observe during developing time. The reaction was stepped with 2N H2SO4 and absorbance was read at 450 nm.

[1] = Simulated Intestinal Fluid (SIF) Stability Assay; assay type: in vitro ADME; settings: pig, 37° C.; for half-life at 22 μM: simulated intestinal fluid (SIF) with 1% porcine pancreatin, pH 6.5, porcine pancreatin; for half-life: porcine pancreatin
Outline: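 Percent peptide remaining over time was measured by LC-MS/MS as the peak-area ratio to internal standard, and a first-order decay fit gave half-life. Digests contained 22 μM peptide and 1% pancreatin in pH 6.5 FaSSIF buffer at 37° C. Aliquots were quenched in organic solvent with formic acid.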

Jurkat E6.1 cells = Jurkat E6.1 cells (Homo sapiens, UniProt P05556+P13612); experiment: α4β1-VCAM Cell Adhesion Assay; assay type: cell-based; settings: thioether peptide dimers, Table 7; read-out: Cell Adhesion A4B1
Sequence of Jurkat E6.1 cells (P13612 34-1032): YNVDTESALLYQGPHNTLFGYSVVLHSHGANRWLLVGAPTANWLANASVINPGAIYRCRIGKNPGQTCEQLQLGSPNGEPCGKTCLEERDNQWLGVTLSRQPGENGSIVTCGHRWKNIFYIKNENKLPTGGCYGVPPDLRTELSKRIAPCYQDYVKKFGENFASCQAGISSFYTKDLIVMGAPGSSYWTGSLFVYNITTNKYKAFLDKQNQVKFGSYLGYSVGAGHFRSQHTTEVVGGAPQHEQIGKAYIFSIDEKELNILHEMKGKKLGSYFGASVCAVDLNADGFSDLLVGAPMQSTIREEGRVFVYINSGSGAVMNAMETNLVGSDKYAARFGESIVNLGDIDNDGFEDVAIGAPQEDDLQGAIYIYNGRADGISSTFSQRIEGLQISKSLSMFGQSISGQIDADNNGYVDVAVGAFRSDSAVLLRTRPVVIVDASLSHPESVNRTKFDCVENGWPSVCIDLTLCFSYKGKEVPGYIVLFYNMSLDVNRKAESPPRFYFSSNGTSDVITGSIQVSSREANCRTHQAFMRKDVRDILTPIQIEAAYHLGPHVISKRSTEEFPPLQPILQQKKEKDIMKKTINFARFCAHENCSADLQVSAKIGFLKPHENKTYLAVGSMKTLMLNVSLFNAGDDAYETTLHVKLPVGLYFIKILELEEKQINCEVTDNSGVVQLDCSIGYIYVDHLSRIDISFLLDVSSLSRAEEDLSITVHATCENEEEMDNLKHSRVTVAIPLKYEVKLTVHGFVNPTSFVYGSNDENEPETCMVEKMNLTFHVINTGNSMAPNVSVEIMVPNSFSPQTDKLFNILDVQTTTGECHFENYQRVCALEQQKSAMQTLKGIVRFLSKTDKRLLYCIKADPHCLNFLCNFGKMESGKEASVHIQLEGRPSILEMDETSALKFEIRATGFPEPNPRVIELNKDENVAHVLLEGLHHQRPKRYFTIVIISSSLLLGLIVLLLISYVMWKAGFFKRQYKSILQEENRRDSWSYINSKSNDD
Sequence of Jurkat E6.1 cells (P05556 21-798): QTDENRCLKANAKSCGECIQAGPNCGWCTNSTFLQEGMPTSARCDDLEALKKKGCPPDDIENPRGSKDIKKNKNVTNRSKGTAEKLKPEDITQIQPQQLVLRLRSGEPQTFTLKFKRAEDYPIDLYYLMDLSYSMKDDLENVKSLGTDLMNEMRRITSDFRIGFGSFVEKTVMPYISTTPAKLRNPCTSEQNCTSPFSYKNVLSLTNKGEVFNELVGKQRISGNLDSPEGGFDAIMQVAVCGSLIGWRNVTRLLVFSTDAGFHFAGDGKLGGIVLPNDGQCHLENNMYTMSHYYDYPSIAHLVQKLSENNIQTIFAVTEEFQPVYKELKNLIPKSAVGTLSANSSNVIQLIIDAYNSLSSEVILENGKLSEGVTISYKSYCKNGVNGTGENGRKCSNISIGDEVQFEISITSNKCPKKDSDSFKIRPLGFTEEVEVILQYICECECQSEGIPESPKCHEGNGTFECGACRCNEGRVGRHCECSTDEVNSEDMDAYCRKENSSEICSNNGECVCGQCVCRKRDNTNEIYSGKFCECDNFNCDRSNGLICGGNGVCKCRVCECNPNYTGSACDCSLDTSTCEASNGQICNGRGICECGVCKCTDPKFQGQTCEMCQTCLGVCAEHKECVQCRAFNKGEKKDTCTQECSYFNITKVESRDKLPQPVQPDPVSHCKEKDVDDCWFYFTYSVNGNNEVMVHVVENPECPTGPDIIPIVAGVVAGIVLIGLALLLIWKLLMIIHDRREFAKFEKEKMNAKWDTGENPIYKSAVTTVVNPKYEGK
Procedure: α4β1-VCAM Cell Adhesion Assay
Jurkat E6.1 cells (Sigma #88042803) were cultured in RPMI 1640 HEPES medium (Invitrogen #22400-089) supplemented with 10% serum (Fetal Bovine Serum, Invitrogen #16140-071), 1 mM sodium pyruvate (Invitrogen #11360-070), 2 mM L-glutamine (Invitrogen #25030-081) and Penicillin-Streptomycin (Invitrogen #15140-122) at 100 units of penicillin and 100 μg of streptomycin per ml. The cells were washed two times in DMEM medium (ATCC #30-2002) supplemented with 0.1% BSA, 10 mM HEPES pH 7 and 1 mM MnCl2. The cells were re-suspended in supplemented DMEM medium at a density of 4×10^6 cells/ml.
A Nunc MaxiSorp plate was coated with rh VCAM-1/CD106 Fc chimera (R&D #862-VC) at 400 ng per well in 50 μl per well in 1×PBS and incubated at 4° C. overnight. The solution was then removed by shaking, blocked with 250 μl per well PBS containing 1% BSA, and incubated at 37° C. for 1 hr. The solution was removed by shaking. Peptides were diluted by serial dilution in a final volume of 50 μl per well (2× concentration). To each well, 50 μl of cells (200,000 cells) were added and the plate was incubated at 37° C., 5% CO2 for 30-45 min to allow cell adhesion. The wells were washed manually three times (100 μl per wash) with supplemented DMEM. After the final wash, 100 μl/well of supplemented DMEM and 10 ul/well of MTT reagent (ATTC cat #30-1010K) were added. The plate was incubated at 37° C., 5% CO2 for 2-3 hrs until a purple precipitate is visible. 100 ul of Detergent Reagent (ATTC cat #30-1010K) is added to each well. The plate was covered from the light, wrapped in Parafilm to prevent evaporation, and left overnight at room temperature in the dark. The plate was shaken for 5 min and the absorbance at 570 nm is measured. To calculate the dose response, the absorbance value of control wells not containing cells was subtracted from each test well.

[2] = thioether peptide dimers, Table 7
[3] = thioether monomer peptides, Table 6

With CC(C)C[C@@H]1NC(=O)[C@H]([C@@H](C)O)NC(=O)[C@H](CC(=O)O)NC(=O)[C@H](CO)NC(=O)[C@H](CCCNC(=N)N)N(C)C(=O)C(C)SC[C@@H](C(=O)N[C@@H](Cc2c[nH]c3ccccc23)C(=O)N[C@H](CCCCN)C(N)=O)NC1=O (single isomer, unassigned) [compound 144] the IC50 (α4β1; [2]) was greater than 1000 nM and the half-life at 22 μM ([1]; dimers, Table 7) was less than 20 min.

For CC(C)C[C@@H]1NC(=O)[C@H]([C@@H](C)O)NC(=O)[C@H](CC(=O)O)NC(=O)[C@H](CO)NC(=O)[C@H](CCCNC(=N)N)N(C)C(=O)c2ccccc2CSC[C@@H](C(=O)N[C@@H](Cc2c[nH]c3ccccc23)C(=O)N[C@@H](CCC(=O)O)C(=O)N[C@H](CCCCN)C(N)=O)NC1=O [compound 55] (HELM PEPTIDE1{[meR].S.D.T.L.C.W.E.[dK].[am]}|CHEM1{[O=C(c1ccccc1C[*:2])[*:1]]}$PEPTIDE1,CHEM1,1:R1-1:R1|PEPTIDE1,CHEM1,6:R3-1:R2$$$V2.0), the IC50 (α4β1; [3]) was 100 to 1000 nM and the half-life at 22 μM ([1]; monomers, Table 6) was 25 min.

With CC(=O)NCCCC[C@@H](NC(=O)[C@@H](CCC(=O)O)NC(=O)[C@H](Cc1c[nH]c2ccccc12)NC(=O)[C@H]1NC(=O)[C@H](CC(C)C)NC(=O)[C@H]([C@@H](C)O)NC(=O)[C@H](CC(=O)O)NC(=O)[C@H](CO)NC(=O)[C@H](CCCNC(=N)N)N(C)C(=O)c2ccccc2CSC1(C)C)C(N)=O [compound 81] (HELM PEPTIDE1{[meR].S.D.T.L.[Pen].W.[dE].[dK].[am]}|PEPTIDE2{[ac]}|CHEM1{[O=C(c1ccccc1C[*:2])[*:1]]}$PEPTIDE1,PEPTIDE2,9:R3-1:R2|PEPTIDE1,CHEM1,1:R1-1:R1|PEPTIDE1,CHEM1,6:R3-1:R2$$$V2.0) the IC50 (α4β1; [3]) was 100 to 1000 nM.

In the case of CC(C)C[C@@H]1NC(=O)[C@H]([C@@H](C)O)NC(=O)[C@H](CC(=O)O)NC(=O)[C@H](CO)NC(=O)[C@H](CCCNC(=N)N)N(C)C(=O)c2ccccc2CSC(C)(C)[C@@H](C(=O)N[C@@H](Cc2ccc3ccccc3c2)C(=O)N[C@H](CCC(=O)O)C(N)=O)NC1=O [compound 114] (HELM PEPTIDE1{[meR].S.D.T.L.[Pen].[O=C([C@H](Cc1ccc2ccccc2c1)N[*:1])[*:2]].[dE].[am]}|CHEM1{[O=C(c1ccccc1C[*:2])[*:1]]}$PEPTIDE1,CHEM1,1:R1-1:R1|PEPTIDE1,CHEM1,6:R3-1:R2$$$V2.0), the IC50 (α4β1; [3]) is reported as 25 to 100 nM and the half-life at 22 μM ([1]; monomers, Table 6) is reported as greater than 180 min.

With CC(C)C[C@@H]1NC(=O)[C@H]([C@@H](C)O)NC(=O)[C@H](CC(=O)O)NC(=O)[C@H](CO)NC(=O)[C@H](CCCNC(=N)N)N(C)C(=O)CSC[C@@H](C(=O)N[C@@H](Cc2c[nH]c3ccccc23)C(=O)N[C@H](CCCCNC(=O)COCC(=O)NCCCC[C@@H](NC(=O)[C@H](Cc2c[nH]c3ccccc23)NC(=O)[C@@H]2CSCC(=O)N(C)[C@@H](CCCNC(=N)N)C(=O)N[C@@H](CO)C(=O)N[C@@H](CC(=O)O)C(=O)N[C@@H]([C@@H](C)O)C(=O)N[C@@H](CC(C)C)C(=O)N2)C(N)=O)C(N)=O)NC1=O [compound 143] the IC50 (α4β1; [2]) was greater than 1000 nM.

CC(C)C[C@@H]1NC(=O)[C@H]([C@@H](C)O)NC(=O)[C@H](CC(=O)O)NC(=O)[C@H](CO)NC(=O)[C@H](CCCNC(=N)N)N(C)C(=O)c2ccccc2CSC[C@H](C(=O)N[C@@H](Cc2c[nH]c3ccccc23)C(=O)N[C@@H](CCC(=O)O)CC(=O)N[C@H](CCCCNC(=O)COCC(=O)NCCCC[C@@H](NC(=O)C[C@H](CCC(=O)O)NC(=O)[C@H](Cc2c[nH]c3ccccc23)NC(=O)[C@H]2CSCc3ccccc3C(=O)N(C)[C@@H](CCCNC(=N)N)C(=O)N[C@@H](CO)C(=O)N[C@@H](CC(=O)O)C(=O)N[C@@H]([C@@H](C)O)C(=O)N[C@@H](CC(C)C)C(=O)N2)C(N)=O)C(N)=O)NC1=O [compound 156] (I: [NMeR]SDTL[dC]W[β3hE][dK]-NH2 / II: [NMeR]SDTL[dC]W[β3hE][dK]-NH2; linker I:9-II:9 via Diglycolyl; linker I:N-I:6, II:N-II:6 via X1) showed an IC50 (α4β1; [2]) of 25 to 100 nM, an IC50 (Jurkat E6.1 cells) greater than 100000 nM and a half-life ([1]; dimers, Table 7) greater than 180 min.

Work on CC(C)C[C@@H]1NC(=O)[C@H]([C@@H](C)O)NC(=O)[C@H](CC(=O)O)NC(=O)[C@H](CO)NC(=O)[C@H](CCCNC(=N)N)N(C)C(=O)c2ccccc2CSCC[C@@H](C(=O)N[C@@H](Cc2c[nH]c3ccccc23)C(=O)N[C@@H](CCC(=O)O)C(=O)N[C@H](CCCCNC(=O)COCC(=O)NCCCC[C@@H](NC(=O)[C@H](CCC(=O)O)NC(=O)[C@H](Cc2c[nH]c3ccccc23)NC(=O)[C@@H]2CCSCc3ccccc3C(=O)N(C)[C@@H](CCCNC(=N)N)C(=O)N[C@@H](CO)C(=O)N[C@@H](CC(=O)O)C(=O)N[C@@H]([C@@H](C)O)C(=O)N[C@@H](CC(C)C)C(=O)N2)C(N)=O)C(N)=O)NC1=O [compound 157] (I: [NMeR]SDTL[hCys]WE[dK]-NH2 / II: [NMeR]SDTL[hCys]WE[dK]-NH2; linker I:9-II:9 via Diglycolyl; linker I:N-I:6, II:N-II:6 via X1) yielded an IC50 (α4β1; [2]) of 100 to 1000 nM and a half-life ([1]; dimers, Table 7) of less than 20 min.

In the case of CC(C)C[C@@H]1NC(=O)[C@H]([C@@H](C)O)NC(=O)[C@H](CC(=O)O)NC(=O)[C@H](CO)NC(=O)[C@H](CCCNC(=N)N)N(C)C(=O)c2ccccc2CSC(C)(C)[C@@H](C(=O)N[C@@H](Cc2cccc3ccccc23)C(=O)N[C@H](CCC(=O)O)C(=O)N[C@H](CCCCNC(=O)COCC(=O)NCCCC[C@@H](NC(=O)[C@@H](CCC(=O)O)NC(=O)[C@H](Cc2cccc3ccccc23)NC(=O)[C@H]2NC(=O)[C@H](CC(C)C)NC(=O)[C@H]([C@@H](C)O)NC(=O)[C@H](CC(=O)O)NC(=O)[C@H](CO)NC(=O)[C@H](CCCNC(=N)N)N(C)C(=O)c3ccccc3CSC2(C)C)C(N)=O)C(N)=O)NC1=O [compound 158] (I: [NMeR]SDTL[Pen][1Nal][dE][dK]-NH2 / II: [NMeR]SDTL[Pen][1Nal][dE][dK]-NH2; linker I:9-II:9 via Diglycolyl; linker I:N-I:6, II:N-II:6 via X1), the IC50 (α4β1; [2]) is reported as 100 to 1000 nM, the IC50 (Jurkat E6.1 cells) is reported as greater than 100000 nM and the half-life at 22 μM ([1]; dimers, Table 7) is reported as greater than 180 min.

With CC(C)C[C@@H]1NC(=O)[C@H]([C@@H](C)O)NC(=O)[C@H](CC(=O)O)NC(=O)[C@H](CO)NC(=O)[C@H](CCCNC(=N)N)N(C)C(=O)c2ccccc2CSC(C)(C)[C@@H](C(=O)N[C@@H](Cc2ccc(C(F)(F)F)cc2)C(=O)N[C@@H](CCC(=O)O)C(=O)N[C@H](CCCCNC(=O)COCC(=O)NCCCC[C@@H](NC(=O)[C@H](CCC(=O)O)NC(=O)[C@H](Cc2ccc(C(F)(F)F)cc2)NC(=O)[C@H]2NC(=O)[C@H](CC(C)C)NC(=O)[C@H]([C@@H](C)O)NC(=O)[C@H](CC(=O)O)NC(=O)[C@H](CO)NC(=O)[C@H](CCCNC(=N)N)N(C)C(=O)c3ccccc3CSC2(C)C)C(N)=O)C(N)=O)NC1=O [compound 166] (I: [NMeR]SDTL[Pen][Phe(4-CF3)]E[dK]-NH2 / II: [NMeR]SDTL[Pen][Phe(4-CF3)]E[dK]-NH2; linker I:9-II:9 via Diglycolyl; linker I:N-I:6, II:N-II:6 via X1) the IC50 (α4β1; [2]) was 25 to 100 nM and the half-life ([1]; dimers, Table 7) was 30 min.
